In PMC3722118, “Hellebrin and its aglycone form hellebrigenin display similar in vitro growth inhibitory effects in cancer cells and binding profiles to the alpha subunits of the Na^+/K^+-ATPase” (Molecular Cancer, 2013):
Like-named read-outs stand apart in the source and are kept apart here.

Key:
T98G glioma cells = test: MTT colorimetric in vitro growth inhibition assay; type: cell-based, human; conditions: Homo sapiens, T98G, 72 h, read-out: IC50 (nM) T98G
Source text: (§1) The histological types and origins of the eight human cancer cell lines that were used for the MTT colorimetric assay are detailed in the legend of Table 1. Two mouse cancer cell lines were also used, the CT26.WT colon cancer cell line (ATCC code CRL-2638) and the B16F10 melanoma cell line (ATCC code CRL-6475). Both cell lines were obtained from the American Type Culture Collection (ATCC, Manassas, VA). A control cell line (human NHDF fibroblasts) was obtained from PromoCell (code c-12300; Heidelberg, Germany). The cell lines detailed in Figure 2A are a generous gift from the National Cancer Institute (NCI, Bethesda, USA) to Steven Karlish’s lab.
(§2) The cancer cells were cultured in RPMI (Lonza, Verviers, Belgium) medium supplemented with 10% heat-inactivated fetal calf serum (Lonza). All culture media were supplemented with 4 mM glutamine, 100 μg/mL gentamicin, 200 U/mL penicillin and 200 μg/mL streptomycin (Lonza). The NHDF fibroblasts were cultured in Lonza medium cc3132 KT FGM-2 BulletKit.
(§3) The overall growth level of the human cancer cell lines was determined using a colorimetric MTT (3-(4,5-dimethylthiazol-2yl)-2,5-diphenyltetrazolium bromide, Sigma, Belgium) assay as detailed previously. Briefly, this test measures the number of metabolically active (thus living) cells that are able to transform the yellow MTT into the blue formazan dye via a mitochondrial reduction involving succinate dehydrogenase. The amount of formazan obtained at the end of the experiment (measured by spectrophotometry) is directly proportional to the number of living cells. The determination of the optical density in the control compared to the treated cells therefore enables quantitative measurements of the effects of compounds on the growth of normal as well as cancer cells in vitro.
(§4) Each experimental condition was performed in six replicates.

SKMEL-28 melanoma cells = test: MTT colorimetric in vitro growth inhibition assay; type: cell-based, human; conditions: Homo sapiens, SK-MEL-28, 72 h, read-out: IC50 (nM) SKMEL-28
Source text: as §1, §2, §3, §4

U373 glioma cells = test: MTT colorimetric in vitro growth inhibition assay; type: cell-based, human; conditions: Homo sapiens, U373 MG, 72 h, read-out: IC50 (nM) U373
Source text: as §1, §2, §3, §4

[1] = system: PC-3 prostate cancer cells; test: MTT colorimetric in vitro growth inhibition assay; type: cell-based, human; conditions: Homo sapiens, 72 h, read-out: IC50 (nM) PC-3
Source text: as §1, §2, §3, §4

Hs683 glioma cells = test: MTT colorimetric in vitro growth inhibition assay; type: cell-based, human; conditions: Homo sapiens, Hs 683, 72 h, read-out: IC50 (nM) Hs683
Source text: as §1, §2, §3, §4

A549 NSCLC cells = test: MTT colorimetric in vitro growth inhibition assay; type: cell-based, human; conditions: Homo sapiens, A549, 72 h, read-out: IC50 (nM) A549
Source text: as §1, §2, §3, §4

HT-29 colon cancer cells [2] = test: MTT colorimetric in vitro growth inhibition assay; type: cell-based, human; conditions: Homo sapiens, HT-29, 72 h, read-out: IC50 (nM) HT-29
Source text: as §1, §2, §3, §4

[3] = system: MCF-7 breast cancer cells; test: MTT colorimetric in vitro growth inhibition assay; type: cell-based, human; conditions: Homo sapiens, MCF7, 72 h, read-out: IC50 (nM) MCF-7
Source text: as §1, §2, §3, §4

[4] = system: human cancer cells (A549, U373, Hs683, T98G, MCF-7, SKMEL-28, PC-3, HT-29); test: MTT growth inhibition, mean over the eight human cancer cell lines; type: cell-based; conditions: 72 h, read-out: IC50 (nM) Mean ± SEM
Source text: as §1, §2, §3, §4

human α1β1 NaK complex [5] = target: T1, human α1β1 NaK complex (Homo sapiens, UniProt P05023); conditions: 3H-ouabain displacement; ref Katz et al. [5]; read-out: Affinity (nM) α-1 (KD ± SEM); cited from earlier work
T1 construct: made in house; host or cells: Pichia pastoris strain SMD1165 (membranes)

human α2β1 NaK complex [6] = target: T2, human α2β1 NaK complex (Homo sapiens, UniProt P50993); conditions: ref Katz et al. [5], cited from earlier work; for Kd: 3H-ouabain displacement, read-out: Affinity (nM) α-2 (KD ± SEM); for Selectivity α-1 / α-2: ratio of KD α-1 to KD α-2
T2 construct: made in house; host or cells: Pichia pastoris strain SMD1165 (membranes)

human α3β1 NaK complex [7] = target: T3, human α3β1 NaK complex (Homo sapiens, UniProt P13637); conditions: ref Katz et al. [5], cited from earlier work; for Kd: 3H-ouabain displacement, read-out: Affinity (nM) α-3 (KD ± SEM); for Selectivity α-1 / α-3: ratio of KD α-1 to KD α-3
T3 construct: made in house; host or cells: Pichia pastoris strain SMD1165 (membranes)

NHDF fibroblasts = test: MTT growth inhibition in non-cancerous control cell line; type: cell-based; conditions: NHDF, normal human fibroblasts, read-out: in vitro growth inhibitory effects (IC50) in NHDF fibroblasts
Source text: as §1, §2, §3, §4

human α2β1 NaK complex [8] = target: T2, human α2β1 NaK complex; test: 3H-ouabain competitive displacement on P. pastoris membranes; type: binding
Procedure: (§5) K0.5 was calculated using a one site inhibition model: B/BCG=0 = K0.5/([CG] + K0.5). […] Binding of each cardiac glycoside was estimated in 3 separate experiments.
(§6) Average KD or Ki values ± SEM for each isoform were calculated. Statistical significance was calculated by the unpaired Students t-test. P values <0.05 were considered significant.

human α3β1 NaK complex [9] = target: T3, human α3β1 NaK complex; test: as above; type: binding
Procedure: as §5, §6

human α1β1 NaK complex [10] = target: T1, human α1β1 NaK complex; test: as above; type: binding; conditions: 3H-ouabain displacement, three independent experiments; read-out: Affinity (nM) α-1 (KD ± SEM)
Procedure: as §5, §6

CT26 colon cancer cells = test: MTT growth inhibition in mouse cancer cells; type: cell-based; conditions: mouse cancer cell line, read-out: IC50 growth inhibitory concentration in CT26 colon cancer cells
Source text: as §1
(§7) The cancer cells were cultured in RPMI (Lonza, Verviers, Belgium) medium supplemented with 10% heat-inactivated fetal calf serum (Lonza). […]
as §3, with “Briefly, this test measures the number of metabolically active (thus living) cells that are able to transform the yellow MTT into the blue formazan dye via a mitochondrial reduction involving succinate dehydrogenase.” left out, “vitro. […]” for “vitro.”

B16F10 melanoma cells = test: MTT growth inhibition in mouse cancer cells; type: cell-based; conditions: B16-F10; mouse cancer cell line; read-out: IC50 growth inhibitory concentration in B16F10 melanoma cells
Source text: as §1, §7
as §3, with “Briefly, this test measures the number of metabolically active (thus living) cells that are able to transform the yellow MTT into the blue formazan dye via a mitochondrial reduction involving succinate dehydrogenase.” left out, “vitro. […]” for “vitro.”

HT-29 colon cancer cells [11] = test: O2 consumption rate (MitoXpress assay); type: cell-based, human; conditions: compounds at their IC50 (MTT), 24 h
Procedure: For enzymatic determination of lactate production, confluent tumor cells were incubated with 10 mM glucose for 24 hours. Culture medium was then filtered through centrifugation columns with a 10 KDa cutoff, and L-lactate concentrations were determined on an ISCUSflex analyzer (CMA Microdialysis AB, Solna, Sweden). O2 consumption was determined using the MitoXpress assay according to the manufacturer’s instructions (LuxCell Biosciences, Cork, Ireland). Briefly, after adding the oxygen probe to tumor cells cultured for 24 hours in 96-well microplates with or without the tested compounds, the wells were sealed with mineral oil, and respiration was evaluated using time-resolved fluorescent plate readers. Under these conditions, O2 depletion was translated into an increase in probe phosphorescence signal, and the slope of this signal was used to derive the O2 consumption rate.
Figure 6 Metabolic profiling of human HT29 colon cancer cells treated with cardiotonic steroids. A: Extracellular lactate concentrations and B: O2 consumption rates in HT29 cancer cells treated with the indicated compounds at their IC50in vitro growth inhibitory concentrations (see Table 1). The data (mean ± SEM from triplicates) are expressed in mM lactate accumulated in the extracellular medium after 24 hours and arbitrary units derived from time-resolved fluorescent signal.min^-1.

[12] = three days of culture, * three independent experiments, ** one experiment, six replicates
[13] = mean over eight human cancer cell lines, three days of culture

Structure (SMILES)	IC50 (T98G glioma cells; [12])	IC50 (SKMEL-28 melanoma cells; [12])	IC50 (U373 glioma cells; [12])	IC50 [1, 12]	IC50 (Hs683 glioma cells; [12])	IC50 (A549 NSCLC cells; [12])	IC50 (HT-29 colon cancer cells [2]; [12])	IC50 [3, 12]	IC50 [4, 13]	Kd (human α1β1 NaK complex [5])	Kd (human α2β1 NaK complex [6])	Selectivity α-1 / α-2 (human α2β1 NaK complex [6])	Kd (human α3β1 NaK complex [7])	Selectivity α-1 / α-3 (human α3β1 NaK complex [7])	also measured
C[C@@H]1O[C@@H](O[C@H]2CC[C@@]3(C)[C@@H](CC[C@@H]4[C@@H]3CC[C@]3(C)[C@@H](C5=CC(=O)OC5)CC[C@]43O)C2)[C@H](O)[C@H](O)[C@H]1O [Uzarigenin-rhamnoside]	38 nM	222 nM	247 nM	77 nM	38 nM	45 nM	41 nM	469 nM	147 ± 55 nM	90 ± 20 nM	96 ± 7 nM	0.9	122 ± 9 nM	0.7	–
C[C@]12CC[C@H](O)C[C@H]1CC[C@@H]1[C@@H]2CC[C@]2(C)[C@@H](C3=CC(=O)OC3)[C@@H](O)C[C@]12O [Gitoxigenin, gitoxigenin]	3590 nM	> 10000 nM	4480 nM	3960 nM	653 nM	1720 nM	4400 nM	5190 nM	> 4250 nM	500 ± 90 nM	1180 nM	0.4	1050 nM	0.5	–
C[C@@H]1O[C@@H](O[C@H]2CC[C@@]3(C)[C@H](CC[C@@H]4[C@@H]3[C@H](O)C[C@]3(C)[C@@H](c5ccc(=O)oc5)CC[C@]43O)C2)[C@H](O)[C@H](O)[C@H]1O [Gamabufotalin-rhamnoside]	–	–	–	–	–	–	–	–	–	–	–	–	–	–	IC50 (NHDF fibroblasts): 1840 nM; IC50 (T98G glioma cells): 7 ± 1 nM; IC50 (SKMEL-28 melanoma cells): 18 ± 7 nM; IC50 (U373 glioma cells): 6 ± 2 nM; IC50 [1]: 6 ± 1 nM; IC50 (Hs683 glioma cells): 4 ± 1 nM; IC50 (A549 NSCLC cells): 3 ± 1 nM; IC50 (HT-29 colon cancer cells [2]): 8 ± 1 nM; IC50 [3]: 17 ± 5 nM; IC50 ([4]; Homo sapiens): 9 ± 2 nM; Kd (human α2β1 NaK complex [8]; 3H-ouabain displacement, three independent experiments, read-out: Affinity (nM) α-2 (KD ± SEM)): 36 ± 10 nM; Selectivity α-1 / α-2 (human α2β1 NaK complex [8]; ratio of KD α-1 to KD α-2): 0.8; Kd (human α3β1 NaK complex [9]; 3H-ouabain displacement, three independent experiments, read-out: Affinity (nM) α-3 (KD ± SEM)): 17 ± 2 nM; Selectivity α-1 / α-3 (human α3β1 NaK complex [9]; ratio of KD α-1 to KD α-3): 1.8; Kd (human α1β1 NaK complex [10]): 30 ± 7 nM; IC50 (CT26 colon cancer cells): 900 nM; IC50 (B16F10 melanoma cells): 700 nM; O2 consumption rate (cell respiration) (HT-29 colon cancer cells [11]): significantly reduced
